Marks after values point to notes of the source that are not given here. Bridge positions count the residues as written; N and C are the ends. Square brackets hold non-standard residues; d marks the D form. Peptide text beside a SMILES is read from it. Trp(1-Me) = Cn1cc(C[C@H](N)C(=O)O)c2ccccc21
How the values were obtained:
soluble C5b-9 = test: Soluble C5b-9 ELISA of the RPE cell-based assay medium; set-up: species or system human; settings: peptide 1 μM; for soluble C5b-9 in assay medium relative to positive control: 10% human complement serum, ~24 hrs, mean±S.E.M., three donors; for Assay medium C5b-9 ELISA % of positive control: RPE cell assay medium, Mean (S.E.M.)
Experimental: The in vitro drusen biogenesis model was employed. Human fetal RPE cells (Advanced Bioscience Resources, Alameda, Calif.) were cultured on Millipore HA porous supports (Millipore, Cat # PIHA 01250) in Miller medium (Maminishkis et al., 2006) supplemented with 5% fetal calf serum (FCS). Cultures derived from three different donor eyes were employed. Cells were rinsed with warm, sterile PBS and the insert membrane was excised with a scalpel and cut into small (˜4 mm^2) pieces which were placed in wells of a 96-well plate. To minimize effects of inter-culture variability, samples prepared from a single membrane were utilized for each experiment. The samples were rinsed in PBS and then exposed individually to the library of compstatin family peptides at 1 μM in FCS-free Miller medium containing 10% human complement serum (Innovative Research, Cat # IPLA-CSER AB, Lot # L12402). In preliminary experiments, compstatin family Peptides I, III, VI, VII, VIII, IX, and Parent (Table 7), were tested in the RPE cell assay at 100 μM and titrated by C5b-9 ELISA over a concentration range of 0.04-130 μM. […] Also from this assessment, Peptide VI, as well as Peptides I and III, were selected for further studies. Peptides I and III were chosen for comparative studies to Peptide VI, because they contain an arginine residue at position 1. The goal was to determine whether peptides containing arginine at position −1 (Peptide VI) or at position 1 (Peptides I and III) were potent complement inhibitors using the RPE cell assay and had improved aqueous solubility compared to previously known potent analogs. Negative control cells were exposed to Miller medium+5% FCS; positive control cells were exposed to Miller medium+10% human complement serum without inhibitory peptides. Experimental and control medium/inhibitor solutions were pre-mixed on a rocker at room temperature for 30 min, then warmed to 37° C., prior to placement on the samples and incubation for ˜24 hrs at 37° C. in a 7.0% CO2 incubator. Following the incubation period, the medium was removed and stored frozen prior to ELISA analysis. The cell/membrane samples were rinsed in PBS, fixed in cold 4% paraformaldehyde (PFA) in PBS for 20 min, and stored in 0.4% PFA until use in immunohistochemical assays.
Soluble C5b-9 ELISA of the RPE Cell-Based Assay Medium.
Experimental medium solutions were diluted 1/625 in assay diluent and quadruplicate ELISAs were performed using an OptEIA C5b-9 ELISA kit (BD Biosciences, Cat #558315). Plates were read at 450 nm, with absorbance at 570 nm subtracted for wavelength correction, on a BioRad Benchmark plate reader. C5b-9 concentrations were calculated using a standard curve generated using purified human C5b-9. Data was expressed as a percentage relative to the positive (human serum only) control. Means and standard errors for data from the three RPE donor cells were calculated and graphed using SigmaPlot 11.0 (Systat Software, San Jose, Calif.), and one-way ANOVA was calculated using Tukey's test for multiple comparisons.

complement activation = settings: alternative pathway-mediated erythrocyte lysis; cited from earlier work
complement system = test: Preliminary ELISA-based complement system inhibition assays, human serum; format: biochemical; settings: preliminary data
Text: For some of the peptides studied here, W1, W13, R1, and S-1S0, there is experimental evidence for inhibitory activity against hC3. […] The structural rationale was that the positively charged backbone amino group was disrupting the hydrophobic cluster at the termini (spanning residues 11-C2-V3-V4/C12/T13 of native compstatin), which was deemed necessary for binding and activity before the availability of the structure of the C3c-W4A9 complex, and that upon removal of the positive charge by acetylation the hydrophobic cluster was fortified and contributed to the 3-fold increase in activity. […] The peptide with the diserine extension is expected to be active, as the diserine was present at the N-terminus of the original 32-amino acid peptide that was identified in the phage-display and a subsequent study.

| Structure (SMILES) | soluble C5b-9 in assay medium relative to positive control (soluble C5b-9) | Assay medium C5b-9 ELISA % of positive control (soluble C5b-9) | IC50 (complement activation) | inhibitory activity in human serum (in words) (complement system) |
| --- | --- | --- | --- | --- |
| CC[C@H](C)[C@H](N)C(=O)N[C@H]1CSSC[C@@H](C(=O)N[C@H](C(N)=O)[C@@H](C)O)NC(=O)[C@H](CCCN=C(N)N)NC(=O)[C@H](Cc2cnc[nH]2)NC(=O)[C@H](Cc2cnc[nH]2)NC(=O)CNC(=O)[C@H](Cc2c[nH]c3ccccc23)NC(=O)[C@H](CC(=O)O)NC(=O)[C@H](CCC(N)=O)NC(=O)[C@H](C(C)C)NC(=O)[C@H](C(C)C)NC1=O [Parent, ICV VQDWGH HRCT-NH2, reference compound] | 88.5±0.76% | 88.49 (0.76) % of positive control | 12 µM |  |
| CC(=O)N[C@@H](CCCNC(=N)N)C(=O)N[C@H]1CSSC[C@@H](C(=O)N[C@H](C(N)=O)[C@@H](C)O)NC(=O)[C@H](CCCNC(=N)N)NC(=O)[C@H](Cc2c[nH]cn2)NC(=O)[C@H](C)NC(=O)CNC(=O)[C@H](Cc2c[nH]c3ccccc23)NC(=O)[C@H](CC(=O)O)NC(=O)[C@H](CCC(N)=O)NC(=O)[C@H](Cc2c[nH]c3ccccc23)NC(=O)[C@H](C(C)C)NC1=O [Peptide I, Ac- RCV WQDWGA HRCT-NH2] (Ac-RCVWQDWGAHRCT-NH2; disulfide 2-12) | 61.4±2.3% | 61.37 (2.34)^a % of positive control |  | higher than those of native compstatin and slightly lower than those of the W4A9 analog |
| CC(=O)N[C@@H](CCCNC(=N)N)C(=O)N[C@H]1CSSC[C@@H](C(=O)N[C@H](C(N)=O)[C@@H](C)O)NC(=O)[C@H](CCCNC(=N)N)NC(=O)[C@H](Cc2c[nH]cn2)NC(=O)[C@H](C)NC(=O)CNC(=O)[C@H](Cc2c[nH]c3ccccc23)NC(=O)[C@H](CC(=O)O)NC(=O)[C@H](CCC(N)=O)NC(=O)[C@H](Cc2cn(C)c3ccccc23)NC(=O)[C@H](C(C)C)NC1=O [Peptide III, Ac- RCV meWQDWGA HRCT-NH2] (Ac-RCV[Trp(1-Me)]QDWGAHRCT-NH2; disulfide 2-12) | 50.0±0.8% | 50.02 (0.82) % of positive control |  |  |
| CC[C@H](C)[C@H](NC(=O)[C@H](CO)NC(=O)[C@H](CCCNC(=N)N)NC(C)=O)C(=O)N[C@H]1CSSC[C@@H](C(=O)N[C@H](C(N)=O)[C@@H](C)O)NC(=O)[C@H](CCCNC(=N)N)NC(=O)[C@H](Cc2c[nH]cn2)NC(=O)[C@H](C)NC(=O)CNC(=O)[C@H](Cc2c[nH]c3ccccc23)NC(=O)[C@H](CC(=O)O)NC(=O)[C@H](CCC(N)=O)NC(=O)[C@H](Cc2cn(C)c3ccccc23)NC(=O)[C@H](C(C)C)NC1=O [Peptide VI, Ac-RS-ICV meWQDWGA HRCT-NH2] | 44.6±3.2% | 44.60 (3.16) % of positive control |  |  |
